The values that follow come from patent US20110294772A1, “USE OF CYCLOSQUARAMIDE COMPOUNDS AS ANTI-TUMOUR AGENTS” (priority 2008, published 2011).

The subject of the first experiment is Jeko-1. In words: cell viability assay. In kind it is cell-based, human. The conditions noted are these: Homo sapiens, JeKo-1, 48 h, cell viability, total incubation period 48 h; read-out: IC50 (μM) against Jeko-1 cells. As to the method:
The IC50 in cell viability assays were determined for some of the macrocycles prepared in Jeko-1 (B-cell lymphoma (MCL) type cells. With a total incubation period of 48 h.
On to `CSCCC1Nc2c(c(=O)c2=O)NCCCN(C)CCCNc2c(c(=O)c2=O)NCCCN(C)CCCNc2c(c(=O)c2=O)NCCCN(C)CCCNc2c(c(=O)c2=O)NCCCN(C)CCCNc2c(c(=O)c2=O)NCCCN(C)CCCNc2c(c(=O)c2=O)NCCCNC1=O` (stereo not drawn) [Compound 4], for which the IC50 came to 24 µM.

Regarding `CSCCC1Nc2c(c(=O)c2=O)NCCCN(C)CCCNc2c(c(=O)c2=O)NCCCN(C)CCCNc2c(c(=O)c2=O)NCCCN(C)CCCNc2c(c(=O)c2=O)NCCCN(C)CCCNc2c(c(=O)c2=O)NCCCNC1=O` (stereo not drawn) [Compound 3], the IC50 is 34 µM.

Staying with this experiment, now noted: cell viability, total incubation period 48 h; read-out: IC50 (μM) against Jeko-1 cells.
As to `CN1CCCNc2c(c(=O)c2=O)NCCCN(C)CCCNc2c(c(=O)c2=O)NCCCN(C)CCCNc2c(c(=O)c2=O)NCCCN(C)CCCNc2c(c(=O)c2=O)NCCCN(C)CCCNc2c(c(=O)c2=O)NCCCN(C)CCCNc2c(c(=O)c2=O)NCCC1` [Compound 2], the IC50 came out at 45 µM.

Consider `CN1CCCNc2c(c(=O)c2=O)NCCCN(C)CCCNc2c(c(=O)c2=O)NCCCN(C)CCCNc2c(c(=O)c2=O)NCCCN(C)CCCNc2c(c(=O)c2=O)NCCCN(C)CCCNc2c(c(=O)c2=O)NCCCN(C)CCCNc2c(c(=O)c2=O)NCCC1` [Compound 5], for which the IC50 was determined as 50 µM.

As to `CN1CCCNc2c(c(=O)c2=O)NCCCN(C)CCCNc2c(c(=O)c2=O)NCCCN(C)CCCNc2c(c(=O)c2=O)NCCCN(C)CCCNc2c(c(=O)c2=O)NCCCN(C)CCCNc2c(c(=O)c2=O)NCCCN(C)CCCNc2c(c(=O)c2=O)NCCC1` [Compound 11], the IC50 amounted to 9.4 µM.

For the molecule `CN1CCCNc2c(c(=O)c2=O)NCCCN(C)CCCNc2c(c(=O)c2=O)NCCCN(C)CCCNc2c(c(=O)c2=O)NCCCN(C)CCCNc2c(c(=O)c2=O)NCCCN(C)CCCNc2c(c(=O)c2=O)NCCCN(C)CCCNc2c(c(=O)c2=O)NCCC1` [Compound 1], the IC50 was 27 µM.

The term IC50 denotes the concentration needed to halve the response being measured.
